{"source": "paper PMC5464333", "about": "“The binding orientations of structurally-related ligands can differ; A cautionary note” (Neuropharmacology, 2017)", "key": {"5-HT3 receptor": {"target": "T1, 5-HT3 receptor (Homo sapiens, UniProt P46098)", "T1 construct": "expressed in transfected cells; host or cells: HEK293, transient, pcDNA3.1", "T1 sequence (P46098 24-478)": "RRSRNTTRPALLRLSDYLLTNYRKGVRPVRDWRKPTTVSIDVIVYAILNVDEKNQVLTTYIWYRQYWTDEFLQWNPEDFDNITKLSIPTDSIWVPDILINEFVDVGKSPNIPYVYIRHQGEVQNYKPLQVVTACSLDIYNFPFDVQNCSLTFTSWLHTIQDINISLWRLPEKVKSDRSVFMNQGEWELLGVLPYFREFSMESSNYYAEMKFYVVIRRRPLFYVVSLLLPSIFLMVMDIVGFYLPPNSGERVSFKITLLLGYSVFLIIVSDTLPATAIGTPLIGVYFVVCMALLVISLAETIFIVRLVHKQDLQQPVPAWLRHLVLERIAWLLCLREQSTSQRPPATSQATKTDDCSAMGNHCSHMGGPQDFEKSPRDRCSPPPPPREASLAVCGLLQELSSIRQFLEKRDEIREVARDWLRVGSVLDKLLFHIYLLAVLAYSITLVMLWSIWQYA", "assay": "Affinities from binding tropisetron, granisetron and their analogues at 5-HT3 receptors", "settings": "for Ki / pKi Mean ± SEM: 5-HT3 receptor; for Fold change: Ki relative to parent scaffold", "protocol": "(§1) Human 5-HT3A subunit cDNA (Accession: P46098, kindly provided by J. Peters, Dundee University, UK) was cloned into pcDNA3.1 for expression in HEK293 cells. […] Cells were transiently transfected with either of these cDNA constructs using polyethyleneimine (PEI: 25 kDa, linear, powder, Polysciences Inc., Eppelheim, Germany). 30 μl of PEI (1 mg ml^−1), 5 μg cDNA and 1 ml DMEM were incubated for 10 min at room temperature, added drop wise to a 90 mm plate of 70–80% conﬂuent HEK293 cells, and incubated for 2–3 days before use.\n(§2) Transfected HEK 293 cells were scraped into 0.6 ml of ice-cold 10 mM HEPES buffer (pH 7.4) and frozen. After thawing, they were washed with HEPES buffer, homogenised by trituration through a 25 gauge (0.5 mm) needle, and 50 μg of cell suspension incubated in 0.5 ml HEPES buffer containing different concentrations of radioligand. […] Equilibrium reactions were incubated on ice for at least 1 h and terminated by vacuum filtration onto Whatman GF/B filters wetted with 0.3% polyethyleneimine, followed by two rapid washes with 2.5 ml ice cold buffer. Radioactivity was measured by scintillation in Ultima Gold XR (Perkin Elmer, Waltham, MA) using a Tri-Carb 2100 TR (PerkinElmer) scintillation counter. Final counts were monitored to ensure that binding never exceeded 10% of the added concentrations of radioligands."}, "α7 nACh receptor [1]": {"test_system": "α7 nACh receptor", "settings": "cited from earlier work"}, "α7 nACh receptor [2]": {"target": "T2, α7 nACh receptor (UniProt P22770+P23979, M226I/T225I)", "T2 sequence (P22770+P23979 fused P22770:T225I/P22770:M226I)": "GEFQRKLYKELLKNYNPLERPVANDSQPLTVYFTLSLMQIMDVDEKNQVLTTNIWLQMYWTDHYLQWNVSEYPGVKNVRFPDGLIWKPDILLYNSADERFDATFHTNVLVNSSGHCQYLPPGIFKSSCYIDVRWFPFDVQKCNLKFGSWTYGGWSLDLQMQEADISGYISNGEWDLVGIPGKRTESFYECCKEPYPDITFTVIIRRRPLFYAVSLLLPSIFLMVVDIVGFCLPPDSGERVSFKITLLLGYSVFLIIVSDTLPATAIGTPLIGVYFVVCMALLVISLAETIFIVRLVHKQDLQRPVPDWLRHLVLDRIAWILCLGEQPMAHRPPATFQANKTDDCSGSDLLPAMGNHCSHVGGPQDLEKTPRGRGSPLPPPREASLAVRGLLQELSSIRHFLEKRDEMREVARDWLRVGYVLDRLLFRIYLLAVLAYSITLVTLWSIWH", "protocol": "as §1, §2\nAll data were analysed using GraphPad Prism v5. Individual saturation binding experiments were fitted to the equation below and the fitted values averaged to yield mean ± sem of n independent experiments: y=[…] where Bmax is maximum binding at equilibrium, Kd is the equilibrium dissociation constant and [L] is the free concentration of radioligand. Affinities were compared using 1-way ANOVA and a Dunnett's Post-Test."}, "[3]": {"test_system": "Untransfected HEK293 cells", "assay": "Radioligand binding at untransfected HEK293 cells", "design": "species or system human", "protocol": "Human embryonic kidney (HEK) 293 cells were grown on 90 mm round tissue culture plates as monolayers in DMEM/F12 (Gibco, Life Technologies, CA, USA) supplemented with 10% fetal bovine serum (FBS; Sigma Aldrich) at 37 °C in a moist atmosphere containing 5% CO2."}, "[4]": {"target": "T3, 5-HT3A receptor wild type (Homo sapiens, UniProt P46098)", "T3 construct": "expressed in transfected cells; host or cells: HEK293, transient, pcDNA3.1", "T3 sequence (P46098 24-478)": "T1 sequence (P46098 24-478)", "assay": "Saturation radioligand binding, wild type 5-HT3A receptor in HEK293", "settings": "wild type 5-HT3 receptors", "protocol": "as §1, §2\n(§3) All data were analysed using GraphPad Prism v5. […]"}, "α7 nACh receptor [5]": {"target": "α7 nACh receptor", "settings": "low potency agonist, cited from earlier work"}, "[6]": {"target": "T4, 5-HT3A receptor I71C mutant (Homo sapiens, UniProt P46098, I66C)", "T4 construct": "expressed in transfected cells; host or cells: HEK293, transient, pcDNA3.1", "T4 sequence (P46098 24-478 I66C)": "T1 sequence (P46098 24-478) with I43C", "assay": "Saturation radioligand binding, 5-HT3A I71C mutant", "settings": "I71C versus wild type", "protocol": "(§4) Mutagenesis was performed using the QuikChange method (Agilent Technologies Inc., California, USA). Cysteine residues were substituted for amino acids throughout each of the binding loops A - E (Fig. 1). To facilitate comparisons with previous work, we have used the numbering of the equivalent residues in the mouse 5-HT3A subunit (Q6J1J7).\nas §1\n(§5) Transfected HEK 293 cells were scraped into 0.6 ml of ice-cold 10 mM HEPES buffer (pH 7.4) and frozen. […] Radioactivity was measured by scintillation in Ultima Gold XR (Perkin Elmer, Waltham, MA) using a Tri-Carb 2100 TR (PerkinElmer) scintillation counter. Final counts were monitored to ensure that binding never exceeded 10% of the added concentrations of radioligands.\nas §3"}, "[7]": {"target": "T5, 5-HT3A receptor P155C mutant (Homo sapiens, UniProt P46098, P150C)", "T5 construct": "expressed in transfected cells; host or cells: HEK293, transient, pcDNA3.1", "T5 sequence (P46098 24-478 P150C)": "T1 sequence (P46098 24-478) with P127C", "assay": "Saturation radioligand binding, 5-HT3A P155C mutant", "settings": "P155C versus wild type", "protocol": "as §4, §1, §5, §3"}, "α7 nACh receptor [8]": {"target": "T2, α7 nACh receptor", "assay": "Competition binding with [3H]epibatidine at α7 nACh receptors", "design": "a chimaera of the chick α7 nACh extracellular domain fused to the 5-HT3 transmembrane/intracellular domains; expressed in transfected cells; host or cells: HEK293 cells, transient transfection (pcDNA3.1, PEI); species or system chick", "protocol": "as §1, with “J.” for “J. Peters, Dundee University, UK) was cloned into pcDNA3.1 for expression in HEK293 cells.”, “use. […] Non-specific binding was determined with 30 μM (-)/-nicotine. Equilibrium reactions were incubated on ice for at least 1 h and bound radioligand measured using the same method as described above.” for “use.”"}, "AChBP": {"target": "AChBP", "settings": "AChBP used for co-crystallisation; ref Hibbs et al., 2009; read-out: affinity; cited from earlier work"}, "[9]": {"target": "T6, 5-HT3A receptor R92C mutant (Homo sapiens, UniProt P46098, R87C)", "T6 construct": "expressed in transfected cells; host or cells: HEK293, transient, pcDNA3.1", "T6 sequence (P46098 24-478 R87C)": "T1 sequence (P46098 24-478) with R64C", "assay": "Saturation radioligand binding, 5-HT3A R92C mutant", "settings": "R92C versus wild type", "protocol": "as §4, §1, §5, §3"}, "[10]": {"target": "T7, 5-HT3A receptor L126C mutant (Homo sapiens, UniProt P46098, L121C)", "T7 construct": "expressed in transfected cells; host or cells: HEK293, transient, pcDNA3.1", "T7 sequence (P46098 24-478 L121C)": "T1 sequence (P46098 24-478) with L98C", "assay": "Saturation radioligand binding, 5-HT3A L126C mutant", "settings": "L126C versus wild type", "protocol": "as §4, §1, §5, §3"}}, "note": "Where a chain is given by its changes, count along the chain named. Where two headings read alike, the source gives them in different places."}
{"compound": "COc1ccc2[nH]cc(C(=O)O[C@H]3C[C@H]4CC[C@@H](C3)N4C)c2c1", "note": "[Compound 1, (1R,3r,5S)-8-methyl-8-azabicyclo[3.2.1]octan-3-yl 5-methoxy-1H-indole-3-carboxylate]", "values": [{"measurement": "Ki", "setting": "5-HT3 receptor", "value": 95.5, "unit": "nM"}, {"measurement": "pKi Mean ± SEM", "setting": "5-HT3 receptor", "value": "7.02 ± 0.03"}, {"measurement": "Fold change", "setting": "5-HT3 receptor", "value": 133, "unit": "fold"}]}
{"compound": "COc1ccc2c(C(=O)O[C@H]3C[C@H]4CC[C@@H](C3)N4C)c[nH]c2c1", "note": "[Compound 2, (1R,3r,5S)-8-methyl-8-azabicyclo[3.2.1]octan-3-yl 6-methoxy-1H-indole-3-carboxylate]", "values": [{"measurement": "Ki", "setting": "5-HT3 receptor", "value": 182, "unit": "nM"}, {"measurement": "pKi Mean ± SEM", "setting": "5-HT3 receptor", "value": "6.74 ± 0.04"}, {"measurement": "Fold change", "setting": "5-HT3 receptor", "value": 253, "unit": "fold"}]}
{"compound": "COc1cccc2c(C(=O)O[C@H]3C[C@H]4CC[C@@H](C3)N4C)c[nH]c12", "note": "[Compound 3, (1R,3r,5S)-8-methyl-8-azabicyclo[3.2.1]octan-3-yl 7-methoxy-1H-indole-3-carboxylate]", "values": [{"measurement": "Ki", "setting": "5-HT3 receptor", "value": 30.2, "unit": "nM"}, {"measurement": "pKi Mean ± SEM", "setting": "5-HT3 receptor", "value": "7.52 ± 0.12"}, {"measurement": "Fold change", "setting": "5-HT3 receptor", "value": 42, "unit": "fold"}]}
{"compound": "O=C(O[C@H]1C[C@H]2CC[C@@H](C1)N2Cc1ccccc1)c1c[nH]c2ccccc12", "note": "[Compound 4, (1R,3r,5S)-8-benzyl-8-azabicyclo[3.2.1]octan-3-yl 1H-indole-3-carboxylate]", "values": [{"measurement": "Ki", "setting": "5-HT3 receptor", "value": 1440, "unit": "nM"}, {"measurement": "pKi Mean ± SEM", "setting": "5-HT3 receptor", "value": "5.84 ± 0.20"}, {"measurement": "Fold change", "setting": "5-HT3 receptor", "value": 2007, "unit": "fold"}]}
{"compound": "COc1cccc2c(C(=O)N[C@H]3C[C@H]4CCC[C@@H](C3)N4C)nn(C)c12", "note": "[Compound 7, 7-methoxy-1-methyl-N-((1R,3r,5S)-9-methyl-9-azabicyclo[3.3.1]nonan-3-yl)-1H-indazole-3-carboxamide]", "values": [{"measurement": "Ki", "setting": "5-HT3 receptor", "value": 120, "unit": "nM"}, {"measurement": "pKi Mean ± SEM", "setting": "5-HT3 receptor", "value": "6.92 ± 0.24"}, {"measurement": "Fold change", "setting": "5-HT3 receptor", "value": 255, "unit": "fold"}]}
{"compound": "CN1C2CCC1CC(NC(=O)c1nn(C)c3ccccc13)C2", "note": "(centres unmarked) [LY-278,584]", "values": [{"measurement": "binding", "setting": "α7 nACh receptor [1]; α7 nACh receptor, ref Macor et al., 2001", "value": "cannot be detected"}]}
{"compound": "Clc1ccc(C2CC3CCC2N3)cn1", "note": "(centres unmarked) [[^3H]epibatidine]", "values": [{"measurement": "Kd", "setting": "α7 nACh receptor [2]", "value": "8.81 ± 0.13", "unit": "nM"}]}
{"compound": "CN1C2CCCC1CC(NC(=O)c1nn(C)c3ccccc13)C2", "note": "(centres unmarked) [[^3H]granisetron]", "values": [{"measurement": "saturable binding", "setting": "[3]", "value": "no saturable binding"}]}
{"compound": "[3H]C([3H])([3H])N1C2CCC1CC(OC(=O)c1c[nH]c3ccccc13)C2", "note": "(centres unmarked) [[^3H]tropisetron]", "values": [{"measurement": "saturable binding", "setting": "[3]", "value": "no saturable binding"}, {"measurement": "saturation binding", "setting": "α7 nACh receptor [2]", "value": "could not be detected"}]}
{"compound": "CN1[C@@H]2CC[C@H]1C[C@@H](OC(=O)c1c[nH]c3ccccc13)C2", "note": "[tropisetron, Tropisetron]", "values": [{"measurement": "Non-specific binding, of total", "setting": "[4]", "value": "30.3 ± 1.8", "unit": "%"}, {"measurement": "EC50", "setting": "α7 nACh receptor [5]; ref Macor et al., 2001", "value": 1300, "unit": "nM"}, {"measurement": "EC50", "setting": "α7 nACh receptor [5]; ref Papke et al., 2005", "value": 600, "unit": "nM"}, {"measurement": "Ki", "setting": "α7 nACh receptor [1]; α7 nACh receptors, ref Macor et al. (2001)", "value": 6.9, "unit": "nM"}, {"measurement": "change in affinity", "setting": "[6]", "value": 1.9, "unit": "fold"}, {"measurement": "decrease in affinity", "setting": "[7]", "value": 5, "unit": "fold"}, {"measurement": "saturation binding", "setting": "α7 nACh receptor [2]; α7 nACh receptors", "value": "undetectable"}, {"measurement": "difference in affinity at 5-HT3 versus α7 nACh receptors", "setting": "α7 nACh receptor [8]; 5-HT3 versus α7 nACh", "value": "> 1000", "unit": "fold"}, {"measurement": "Ki", "setting": "α7 nACh receptor [8]; competition with [3H]epibatidine", "value": "1580 ± 840", "unit": "nM"}, {"measurement": "Kd", "setting": "AChBP", "value": 500, "unit": "nM"}, {"measurement": "reduction in affinity", "setting": "[9]", "value": 2.5, "unit": "fold"}, {"measurement": "change in affinity", "setting": "[10]", "value": 2.5, "unit": "fold"}]}
